Row | Structure (SMILES) | melting point
1 | CCCCCCCC(=O)Oc1cccc2[nH]cc(CCN(C)C)c12 | 69 to 70 °C
2 | CCCCCCCCCCCCCC(=O)Oc1cccc2[nH]cc(CCN(C)C)c12 | 58 to 59 °C

From US20230271924A1 (published 2023)
